Read-outs that look alike come from different tables or passages of the source.
Experiments:
[1] = biological target: T1, aspartate/glutamate-binding protein (DEBP) (Escherichia coli, UniProt P37902); assay: SAXS-based ligand titration; parameters: species or system E. coli
T1 construct: made in house; host or cells: E. coli BL21(DE3)
Source text: Their preliminary results have been excluded from this report.

[2] = biological target: DEBP; parameters: method as in Clifton & Jackson (2016); settings: ref Clifton & Jackson (2016), read-out: K D (ITC, literature); cited from earlier work
[3] = biological target: T2, histidine-binding protein (HisBP) (Escherichia coli, UniProt P0AEU0); assay: biochemical
Experimental: (§1) Titrations were conducted at fixed protein concentrations to exclude signal-to-noise factors. An initial mass concentration of 2.0 or 4.0 mg ml^−1 was employed in prospective experiments, then scaled to 2.0, 1.0, 0.5 and 0.25 mg ml^−1 in later concentration-variation studies. […] A total of eight beamline experiments were conducted, using the automated sample changing environments available on site, operated in constant-flow mode: three times at ESRF BM29, three at DESY P12, once at Australian Synchrotron SAXS/WAXS and once at Diamond B21. […] Furthermore, experiments at ESRF BM29 and Diamond B21 were carried out on site, while the DESY P12 experiment was carried out by mail-in. For these measurements, samples were prepared by pipetting ligand–protein mixtures onto 96-well plates prior to transport. As for the Australian Synchrotron measurements, apo–HisBP was lyophilized in its final buffer and reconstituted on site using pure H2O and then mixed with the ligands in 96-well plates.
(§2) Buffer-subtracted intensities provided from respective synchrotron pipelines were used as starting points for analysis. […] Thus, an intermediate value of 7.2 nm was fixed for all computations involving D max including V R.
(§3) This was used to assist in locating data points affected by sample handling errors or measurement failures, along with detectable aggregation. The ideal minimum angle after removal of parasitic scattering is 0.1–0.15 nm^−1, although a more conservative cutoff was used to collectively eliminate residual aggregation. The maximum usable q was determined by visual inspection of noise. The final ranges used across all HisBP beamline sessions were: 0.2–2.0 nm^−1 at 20 µM and below, 0.25–2.5 nm^−1 at 40 µM, and 0.3–3 nm^−1 above 80 µM. The q-ranges for DEBP and GlnBP were set to 0.1–2.8 nm^−1.
(§4) A common scattering reference is created per HisBP concentration and per beamline experiment by averaging apo protein replicates after discarding outliers. This reference is used for both V R and χlin computations.
(§5) To fit binding curves against metrics, we consider all titrations conducted per protein concentration per beamline experiment as a single set, after removing data points resulting from aggregation, preparation errors or measurement errors. […] Since the two-state binding curve at constant [R] cannot effectively discriminate between K D values much larger or smaller than [R], fitted K D values are limited to within four orders of magnitude of the receptor concentration (cf. Fig. S1). […] Error bars indicate σ of logK D from the ensemble of replicate predictions. For metrics where uncertainty was not computed (V R and V P), the uncertainty was estimated by single-point removal, where K D was recomputed after removal of each titration point. The σ of the resulting replicates are taken as the σ of logK D. To eliminate cases where the fitting process fails due to ill-constrained parameters, replicates were discarded if the fitted apo–holo differences were >3σ from the mean value of all replicates.

[4] = biological target: HisBP; parameters: method as in Paul et al. (2016); settings: ref Paul et al. (2016), read-out: K D (ITC, literature); cited from earlier work
[5] = biological target: T2, histidine-binding protein (HisBP); assay: biochemical; remark: listed apart in the source
Experimental: All ITC measurements were conducted on a Malvern MicroCal PEAQ ITC at 20°C with stirring at 200 rev min^−1 using the same buffer as in SAXS measurements. The cell was initially loaded with 200 µl of 20 µM protein with an initial ligand concentration of 200 µM in the syringe to quantify His:HisBP binding. This was further adjusted in subsequent runs to resolve weaker interactions as necessary.

[6] = biological target: T2, histidine-binding protein (HisBP); settings: His:HisBP
Experimental: as §1, §2, §3, §4, §5

[7] = biological target: GlnBP; parameters: method as in Clifton & Jackson (2016); settings: ref Clifton & Jackson (2016), read-out: K D (ITC, literature); cited from earlier work
[8] = K D fitted to SAXS V R titration curves, AustSynch, 20s exposure, […] 10^13 photons, HisBP 19 µM
[9] = K D fitted to SAXS V R titration curves, AustSynch, 20s exposure, […] 10^13 photons, HisBP 38 µM
[10] = K D fitted to SAXS V R titration curves, AustSynch, 20s exposure, […] 10^13 photons, HisBP 76 µM
[11] = K D fitted to SAXS V R titration curves, DESY, 4s exposure, […] 10^13 photons, HisBP 10 µM
[12] = K D fitted to SAXS V R titration curves, DESY, 4s exposure, […] 10^13 photons, HisBP 20 µM
[13] = K D fitted to SAXS V R titration curves, DESY, 4s exposure, […] 10^13 photons, HisBP 40 µM
[14] = K D fitted to SAXS V R titration curves, DESY, 4s exposure, […] 10^13 photons, HisBP 80 µM
[15] = K D fitted to SAXS V R titration curves, Diamond, 40s exposure, […] 10^14 photons, HisBP 10 µM
[16] = K D fitted to SAXS V R titration curves, Diamond, 40s exposure, […] 10^14 photons, HisBP 20 µM
[17] = K D fitted to SAXS V R titration curves, Diamond, 40s exposure, […] 10^14 photons, HisBP 40 µM
[18] = K D fitted to SAXS V R titration curves, Diamond, 40s exposure, […] 10^14 photons, HisBP 80 µM
[19] = K D fitted to SAXS V R titration curves, ESRF, 5s exposure, 3.0 × 10^12 photons, HisBP 160 µM
[20] = KD fitted to SAXS Rg curves, AustSynch, 20s exposure, HisBP 38 µM
[21] = KD fitted to SAXS Rg curves, AustSynch, 20s exposure, HisBP 76 µM
[22] = KD fitted to SAXS Rg curves, DESY, 4s exposure, HisBP 10 µM
[23] = KD fitted to SAXS Rg curves, DESY, 4s exposure, HisBP 20 µM
[24] = KD fitted to SAXS Rg curves, DESY, 4s exposure, HisBP 40 µM
[25] = KD fitted to SAXS Rg curves, DESY, 4s exposure, HisBP 80 µM
[26] = KD fitted to SAXS Rg curves, ESRF, 5s exposure, HisBP 160 µM
[27] = KD fitted to SAXS Vc curves, AustSynch, 20s exposure, HisBP 38 µM
[28] = KD fitted to SAXS Vc curves, AustSynch, 20s exposure, HisBP 76 µM
[29] = KD fitted to SAXS Vc curves, DESY, 4s exposure, HisBP 40 µM
[30] = KD fitted to SAXS Vc curves, DESY, 4s exposure, HisBP 80 µM
[31] = KD fitted to SAXS Vc curves, ESRF, 5s exposure, HisBP 160 µM
[32] = KD fitted to SAXS χlin. curves, AustSynch, 20s exposure, HisBP 38 µM
[33] = KD fitted to SAXS χlin. curves, AustSynch, 20s exposure, HisBP 76 µM
[34] = KD fitted to SAXS χlin. curves, DESY, 4s exposure, HisBP 10 µM
[35] = KD fitted to SAXS χlin. curves, DESY, 4s exposure, HisBP 20 µM
[36] = KD fitted to SAXS χlin. curves, DESY, 4s exposure, HisBP 40 µM
[37] = KD fitted to SAXS χlin. curves, DESY, 4s exposure, HisBP 80 µM
[38] = KD fitted to SAXS χlin. curves, Diamond, 40s exposure, HisBP 40 µM
[39] = KD fitted to SAXS χlin. curves, Diamond, 40s exposure, HisBP 80 µM
[40] = KD fitted to SAXS χlin. curves, ESRF, 5s exposure, HisBP 152 µM

T2 sequence (P0AEU0 23-260): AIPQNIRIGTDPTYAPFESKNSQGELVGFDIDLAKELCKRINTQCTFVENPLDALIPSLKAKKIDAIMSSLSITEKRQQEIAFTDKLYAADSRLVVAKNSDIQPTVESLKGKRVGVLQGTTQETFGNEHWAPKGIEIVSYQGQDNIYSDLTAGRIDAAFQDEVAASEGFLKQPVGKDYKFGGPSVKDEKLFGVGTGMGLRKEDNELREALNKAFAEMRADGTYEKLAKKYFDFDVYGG
T1 sequence (P37902 28-302): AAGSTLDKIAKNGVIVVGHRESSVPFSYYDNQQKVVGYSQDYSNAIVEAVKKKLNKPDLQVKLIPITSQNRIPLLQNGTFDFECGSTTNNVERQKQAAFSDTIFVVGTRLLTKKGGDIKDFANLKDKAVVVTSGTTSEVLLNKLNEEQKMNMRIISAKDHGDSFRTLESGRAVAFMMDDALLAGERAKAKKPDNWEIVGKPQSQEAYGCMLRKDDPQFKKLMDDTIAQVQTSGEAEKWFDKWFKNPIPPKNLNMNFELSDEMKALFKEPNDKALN

## NC(=O)C[C@H](N)C(=O)O [Asn]
[1]; DEBP, 2 mg ml^−1, 10^12 photons
  binding suggested by SAXS titrations: unexpected binding

## N[C@@H](CC(=O)O)C(=O)O [Asp, aspartate]
[2]
  Kd: 1.73 ± 0.49 µM

## N[C@@H](Cc1c[nH]cn1)C(=O)O [His, histidine]
[3]; [8]
  Kd: 0.062 ± 0.028 µM
[3]; [9]
  Kd: 1.5 ± 0.7 µM
[3]; [10]
  Kd: 3.6 ± 0.74 µM
[3]; [11]
  Kd: 84 ± 68 µM
[3]; [12]
  Kd: 1 ± 0.19 µM
[3]; [13]
  Kd: 3.7 ± 0.58 µM
[3]; [14]
  Kd: 6.4 ± 1.1 µM
[3]; [15]
  Kd: 0.0014 ± 0.00092 µM
[3]; [16]
  Kd: 0.0051 ± 0.0041 µM
[3]; [17]
  Kd: 0.013 ± 0.011 µM
[3]; [18]
  Kd: 1.3 ± 0.5 µM
[3]; K D fitted to SAXS V R titration curves, ESRF, 5s exposure, 3.0 × 10^12 photons, HisBP 38 µM
  Kd: 0.24 ± 0.14 µM
[3]; [19]
  Kd: 0.37 ± 0.47 µM
[3]; [20]
  Kd: 6.3 ± 0.87 µM
[3]; [21]
  Kd: 1.7 ± 0.87 µM
[3]; [22]
  Kd: 100 ± 140 µM
[3]; [23]
  Kd: 0.0027 ± 0.0047 µM
[3]; [24]
  Kd: 4.2 ± 2.4 µM
[3]; [25]
  Kd: 8.2 ± 1.8 µM
[3]; KD fitted to SAXS Rg curves, Diamond, 40s exposure, HisBP 10 µM
  Kd: 0.018 µM
[3]; KD fitted to SAXS Rg curves, Diamond, 40s exposure, HisBP 20 µM
  Kd: 0.015 µM
[3]; KD fitted to SAXS Rg curves, Diamond, 40s exposure, HisBP 80 µM
  Kd: 2.2 ± 3.1 µM
[3]; KD fitted to SAXS Rg curves, ESRF, 5s exposure, HisBP 38 µM
  Kd: 0.16 µM
[3]; [26]
  Kd: 0.61 ± 0.12 µM
[3]; KD fitted to SAXS Vc curves, AustSynch, 20s exposure, HisBP 19 µM
  Kd: 0.16 µM
[3]; [27]
  Kd: 5.3 ± 3.7 µM
[3]; [28]
  Kd: 25 ± 8.1 µM
[3]; [29]
  Kd: 19 µM
[3]; [30]
  Kd: 5.8 µM
[3]; KD fitted to SAXS Vc curves, Diamond, 40s exposure, HisBP 80 µM
  Kd: 9.9 µM
[3]; KD fitted to SAXS Vc curves, ESRF, 5s exposure, HisBP 7.6 µM
  Kd: 2.8 µM
[3]; KD fitted to SAXS Vc curves, ESRF, 5s exposure, HisBP 38 µM
  Kd: 200 ± 490 µM
[3]; [31]
  Kd: 0.88 ± 2.4 µM
[3]; KD fitted to SAXS χlin. curves, AustSynch, 20s exposure, HisBP 19 µM
  Kd: 1.2 µM
[3]; [32]
  Kd: 4.5 ± 1.5 µM
[3]; [33]
  Kd: 5.1 ± 0.75 µM
[3]; [34]
  Kd: 4.4 ± 2.8 µM
[3]; [35]
  Kd: 2.9 ± 1.5 µM
[3]; [36]
  Kd: 13 ± 3.5 µM
[3]; [37]
  Kd: 15 ± 1.9 µM
[3]; KD fitted to SAXS χlin. curves, Diamond, 40s exposure, HisBP 20 µM
  Kd: 0.07 µM
[3]; [38]
  Kd: 4.3 ± 4.7 µM
[3]; [39]
  Kd: 20 ± 3.4 µM
[3]; KD fitted to SAXS χlin. curves, ESRF, 5s exposure, HisBP 7.6 µM
  Kd: 0.5 µM
[3]; KD fitted to SAXS χlin. curves, ESRF, 5s exposure, HisBP 38 µM
  Kd: 0.099 µM
[3]; [40]
  Kd: 0.32 ± 0.051 µM
[4]
  Kd: 0.064 ± 0.01 µM
[5]
  Kd: 0.048 ± 0.0052 µM
[6]; ligand-excess conditions
  SAXS R g Exp. (saturated): 18.3 ± 1.0 Å
[6]; saturated versus apo
  SAXS ΔR g: −1.3 Å

## N[C@@H](CCC(=O)O)C(=O)O [Glu, glutamate]
[1]; Glu:DEBP, ligand-excess conditions
  SAXS R g Exp. (saturated): 20.6 ± 1.3 Å
[1]; Glu:DEBP, saturated versus apo
  SAXS ΔR g: −2.6 Å
[2]
  Kd: 0.334 ± 0.12 µM

## NCCCC[C@H](N)C(=O)O [Lys, lysine]
[3]; [8]
  Kd: 110 ± 10 µM
[3]; [9]
  Kd: 32 ± 4.6 µM
[3]; [10]
  Kd: 95 ± 11 µM
[3]; [11]
  Kd: 0.0023 ± 0.0016 µM
[3]; [12]
  Kd: 61 ± 6.4 µM
[3]; [13]
  Kd: 720 ± 350 µM
[3]; [14]
  Kd: 58 ± 7.5 µM
[3]; [15]
  Kd: 230 ± 200 µM
[3]; [16]
  Kd: 47 ± 3.6 µM
[3]; [17]
  Kd: 320 ± 210 µM
[3]; [18]
  Kd: 89 ± 9.6 µM
[3]; [19]
  Kd: 49 ± 4.1 µM
[3]; KD fitted to SAXS Rg curves, AustSynch, 20s exposure, HisBP 19 µM
  Kd: 460 ± 230 µM
[3]; [20]
  Kd: 340 ± 120 µM
[3]; [21]
  Kd: 0.031 ± 0.025 µM
[3]; [22]
  Kd: 1.3 ± 2.5 µM
[3]; [23]
  Kd: 38 ± 28 µM
[3]; [24]
  Kd: 0.086 µM
[3]; [25]
  Kd: 36 ± 42 µM
[3]; KD fitted to SAXS Rg curves, Diamond, 40s exposure, HisBP 40 µM
  Kd: 1500 ± 3200 µM
[3]; [26]
  Kd: 71 ± 8.9 µM
[3]; [27]
  Kd: 450 ± 510 µM
[3]; [28]
  Kd: 9.5 µM
[3]; KD fitted to SAXS Vc curves, DESY, 4s exposure, HisBP 10 µM
  Kd: 0.18 µM
[3]; KD fitted to SAXS Vc curves, DESY, 4s exposure, HisBP 20 µM
  Kd: 44 µM
[3]; [29]
  Kd: 2.8 µM
[3]; [30]
  Kd: 9 µM
[3]; KD fitted to SAXS Vc curves, Diamond, 40s exposure, HisBP 40 µM
  Kd: 57 µM
[3]; [31]
  Kd: 280 ± 450 µM
[3]; [32]
  Kd: 150 ± 46 µM
[3]; [33]
  Kd: 130 ± 14 µM
[3]; [34]
  Kd: 0.46 ± 0.5 µM
[3]; [35]
  Kd: 2.1 ± 3.2 µM
[3]; [36]
  Kd: 160 ± 230 µM
[3]; [37]
  Kd: 150 ± 40 µM
[3]; [38]
  Kd: 4500 ± 3400 µM
[3]; [39]
  Kd: 260 ± 150 µM
[3]; [40]
  Kd: 180 ± 15 µM
[4]
  Kd: 19.5 ± 6 µM
[5]
  Kd: 62 ± 11 µM

## NC(=O)CC[C@H](N)C(=O)O [Gln, glutamine]
[7]
  Kd: 0.106 ± 0.065 µM

## NCCC[C@H](N)C(=O)O [Orn, ornithine]
[4]
  Kd: 72 ± 4 µM

— publication PMC7340254, “Structure-based screening of binding affinities via small-angle X-ray scattering” (IUCrJ, 2020)
